Experimental data taken from article PMC5589090 (PLoS Medicine, 2017).
Where “and” joins values, the source holds several entries; their conditions need not be identical. Equal values may be shown once. Read-outs that look alike come from different tables or passages of the source.

Legend:
[1] = human, po, 0.01 mg/kg
Procedure: To ensure safety in case of this possibility, decitabine pharmacokinetics are measured after single dose oral administration of decitabine and THU.

[2] = cited from earlier work
[3] = cited from earlier work; remark: listed apart in the source
[4] = test system: multiple intestinal adenomas; parameters: method as in ref 90 (a number printed in a supplementary file, which may have a reference list of its own: not looked up in the article's list); conditions: cited from earlier work
testicular cancer = test system: testicular cancer; parameters: method as in ref 92 (a number printed in a supplementary file, which may have a reference list of its own: not looked up in the article's list); conditions: 20% incidence in controls; cited from earlier work
tumor cell lines = test system: tumor cell lines; parameters: method as in ref 83 (a number printed in a supplementary file, which may have a reference list of its own: not looked up in the article's list); conditions: of 25 940 genes analyzed; cited from earlier work
[5] = cited from earlier work; remark: listed apart in the source
THP1 = conditions: 0.3 µM daily for 2-3 days; cited from earlier work
[6] = ref Investigators Brochure, cited from earlier work
[7] = Decitabine plasma pharmacokinetics by LCMS/MS after first oral THU-decitabine dose; assay type: in vivo, human; conditions: for Cmax: first dose
Procedure: Blood samples were drawn over a period of less than 1 minute into tubes pre-loaded with heparin and THU 10 μg/ml (to prevent in vitro metabolism by CDA) and immediately transferred onto ice. Samples were then centrifuged as soon as possible at 600 g for 5 minutes at 4°C. […] Pharmacokinetic data were analyzed using non-compartmental methods or a 2-compartment model with instantaneous/intravenous input using the R package PKLMfit. […] The AUClast (the area under the curve from the time of dosing to the last measurable concentration) was calculated by the linear trapezoidal method.
Samples will be processed immediately by centrifugation at 3000 × g for 5 min in a refrigerated centrifuge. […] To increase stability, tetrahydrouridine (THU), a cytidine deaminase inhibitor, will be added to the plasma supernatant at a final concentration of 100 μM immediately after centrifugation. Plasma (300 μL) will be then aliquoted into two tubes with the remaining plasma in a third tube. The plasma will be immediately frozen at −80 °C until analysis. All samples will be sent to Jiang Wang, PhASR at The Ohio State University for processing (appendix B).
The chromatographic separation will be performed on a 250 mm × 2.0 mm i.d., 4.0 μm, C18 column (YMC Co. Ltd., Kyoto, Japan) and a 20 mm × 2.1 mm i.d., 3.5 μm, C18 guard column (Waters Xterra RP18, Waters Corporation, Milford, MA, USA) kept at room temperature. The mobile phase used for chromatographic separation will be composed of 2 mM ammonium acetate containing 0.1% formic acid and methanol, and is delivered using a gradient flow. The mass spectrometer is equipped with an electrospray interface, which will be operated in a positive mode, and controlled by the completely validated Masslynx software (Waters Corporation, Milford, MA, USA). […] The analytical method is currently under development and validation according to the ICH Guideline (ICH Harmonized Tripartite Guideline. Validation of Analytical Procedures: Text and Methodology. Q2(R1). Incorporated in November, 2005) in the laboratory of Dr. Lyubimov (Toxicology Research Laboratory, TRL). Method specificity, linearity, range, accuracy, precision and detection limit will be established and validated. In addition, short-term, long-term and freezing/towing stability will be determined. All sample collection, handling and analysis procedures will be performed according to GLP and GCP requirements. All data and the report will be audited by the Quality Assurance Officer at TRL.
PK analysis: PK analysis will be performed using the Winnonlin software (version 5.0.1, Pharsight NC) and will include the determination of maximum plasma concentration (Cmax), time to maximum plasma concentration (Tmax), area under the plasma concentration-versus-time curve from time zero to last measurable plasma concentration (AUC0-t). The terminal rate constant ( [picture] z) will be determined from the slope of the terminal phase of the plasma concentration-time curve using uniform weight. The terminal half-life (T1/2) will be calculated as 0.693 divided by [picture] z. Area under the concentration-time curve (AUC) will be calculated using the log/linear trapezoidal rule. The AUC will be extrapolated to infinity (AUC0– [picture] ) by using the equation, AUC0– [picture] = AUC0–t + Clast/ [picture] z, where Clast will be the final quantifiable concentration.

cancers = test system: cancers; parameters: method as in ref 94 (a number printed in a supplementary file, which may have a reference list of its own: not looked up in the article's list); conditions: cited from earlier work
DNMT1 = target: T1, DNMT1 (Homo sapiens, UniProt P26358); experiment: DNMT1 protein measurement by flow cytometry of peripheral blood mononuclear cells; assay type: in vivo
T1 construct: DNMT1 protein levels were measured by flow cytometric analysis of peripheral blood mononuclear cells; endogenous in cells; host or cells: peripheral blood mononuclear cells of sickle cell disease patients (ex vivo, after in vivo dosing)
Procedure: Phlebotomized whole blood was layered over Histopaque. The interface was collected and washed with phosphate-buffered saline (PBS). Cell suspensions of approximately 200,000 cells were fixed with 4% paraformaldehyde for 30 minutes on ice. Cells were spun down, washed in PBS, and suspended in 70% ethanol and stored at −20°C for subsequent batched analyses. […] All procedures were performed on ice and all centrifugations were done at 400 g for 5 minutes at 4°C. The pellet was hydrated overnight in 1 ml sterile, distilled water to partially reverse the alcohol fixation. After incubation, samples were centrifuged and then resuspended in 1 ml PBS/2% bovine serum albumin (BSA) and incubated for 30 minutes to block nonspecific antibody binding. Following centrifugation, unlabeled anti-DNMT1 antibody [EPR 3522] […] Samples were washed 3 times: each wash was a 10-minute incubation with 1 ml PBS/2% BSA followed by centrifugation. After the third wash, CD64-Alexa Fluor 488 (5 μl/test; BioLegend; catalog no. 305010), Cyclin A2-PE (4μl/test; Beckman Coulter; catalog no. B15092), CD33-APC/Cy7 (5 μl/test; BioLegend; catalog no. 366614), and F(ab′)2-goat anti-rabbit IgG (H+L) Alexa Fluor 647 (0.0938 μg/test; Life Technologies; catalog no. A21246) were added in a final volume of 100 μl and incubated for 1 hour. After the incubation and without washing, 3.5 ml PBS containing 0.5 μg/ml DAPI was added to each sample. All samples were analyzed on an Attune NxT Acoustic Focusing Cytometer (Life Technologies) at a flow rate of 500 μl per minute. Compensation was performed with CompBeads Set Anti-Mouse Ig, κ (BD Biosciences; catalog no. 552843) and Flow Cytometry Protein G Antibody Binding Beads (Bangs Laboratories, Inc.; catalog no. 554/11863).
Data were normalized to the instrument using 8-peak SPHERO Rainbow Calibration Particles (Spherotech; catalog no. RCP-30-5A). WinList 3D v8.0 (Verity Software House) was used for post-acquisition analysis. Doublet discrimination was performed using the DAPI area and peak signals. […]

[8] = Table B1, baseline before treatment, per subject, r10 Mean ±SD
[9] = Table B1, last 20 of 36 weeks of treatment, per subject, r10 Mean ±SD

T1 sequence (P26358 whole entry): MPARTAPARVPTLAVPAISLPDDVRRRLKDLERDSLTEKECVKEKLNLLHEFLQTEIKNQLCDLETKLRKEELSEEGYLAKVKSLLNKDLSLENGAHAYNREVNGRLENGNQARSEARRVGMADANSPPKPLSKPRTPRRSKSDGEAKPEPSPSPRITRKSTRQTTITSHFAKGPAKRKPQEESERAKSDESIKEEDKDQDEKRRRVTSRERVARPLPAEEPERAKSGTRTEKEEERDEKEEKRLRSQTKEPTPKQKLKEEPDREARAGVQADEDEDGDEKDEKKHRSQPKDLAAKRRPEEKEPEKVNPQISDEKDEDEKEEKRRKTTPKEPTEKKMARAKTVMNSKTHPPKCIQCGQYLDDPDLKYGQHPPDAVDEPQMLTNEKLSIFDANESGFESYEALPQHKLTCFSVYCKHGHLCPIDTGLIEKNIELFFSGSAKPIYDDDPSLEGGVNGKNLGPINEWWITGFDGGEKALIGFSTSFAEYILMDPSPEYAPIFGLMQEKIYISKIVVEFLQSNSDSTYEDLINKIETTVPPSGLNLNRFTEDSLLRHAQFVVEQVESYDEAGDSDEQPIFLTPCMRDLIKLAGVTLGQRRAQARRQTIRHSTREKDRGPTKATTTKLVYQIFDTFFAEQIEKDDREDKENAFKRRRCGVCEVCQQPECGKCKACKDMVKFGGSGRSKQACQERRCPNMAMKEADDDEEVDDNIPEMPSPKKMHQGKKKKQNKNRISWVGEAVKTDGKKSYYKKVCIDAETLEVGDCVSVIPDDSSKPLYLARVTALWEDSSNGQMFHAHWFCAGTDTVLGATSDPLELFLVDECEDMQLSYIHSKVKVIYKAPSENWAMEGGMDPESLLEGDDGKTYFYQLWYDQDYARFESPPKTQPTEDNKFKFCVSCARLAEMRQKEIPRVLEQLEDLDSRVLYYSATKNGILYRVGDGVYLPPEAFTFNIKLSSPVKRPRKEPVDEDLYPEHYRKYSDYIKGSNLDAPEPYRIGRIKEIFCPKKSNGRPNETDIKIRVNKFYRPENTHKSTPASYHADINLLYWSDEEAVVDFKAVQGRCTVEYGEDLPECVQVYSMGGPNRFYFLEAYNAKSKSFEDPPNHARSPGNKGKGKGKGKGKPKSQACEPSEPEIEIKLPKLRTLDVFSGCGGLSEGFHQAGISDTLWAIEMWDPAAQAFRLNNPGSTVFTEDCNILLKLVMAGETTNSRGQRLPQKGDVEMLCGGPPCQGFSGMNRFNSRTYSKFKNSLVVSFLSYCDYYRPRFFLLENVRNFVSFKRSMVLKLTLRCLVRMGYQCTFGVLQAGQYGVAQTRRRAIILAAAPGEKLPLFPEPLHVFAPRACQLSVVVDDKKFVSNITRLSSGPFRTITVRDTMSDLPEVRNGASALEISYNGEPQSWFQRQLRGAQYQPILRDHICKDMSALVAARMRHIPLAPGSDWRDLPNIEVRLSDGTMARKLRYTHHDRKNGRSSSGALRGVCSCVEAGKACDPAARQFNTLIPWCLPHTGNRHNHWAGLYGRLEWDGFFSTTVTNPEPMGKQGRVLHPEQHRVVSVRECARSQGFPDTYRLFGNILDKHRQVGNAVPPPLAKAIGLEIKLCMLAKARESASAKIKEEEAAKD

Nc1ncn([C@H]2C[C@H](O)[C@@H](CO)O2)c(=O)n1 [decitabine, 5-aza-2’-deoxycytidine]
Cmax [1]: ≤ 0.74 nM
stability in plasma ([2]; hydrolysis and cytidine deaminase): very unstable in plasma
hydrolysis in aqueous solution every 7 hours ([2]; pH 7.4, 4 °C): approximately 2.5%
fetal defects ([3]; pregnant mice, dose and gestation day related): increased fetal defects
fertility in off-spring after in utero exposure ([3]; primarily in males): decreased fertility in off-spring
tumor development [4]: do not develop tumors
testicular cancer occurrence (testicular cancer): 0%
genes with increased expression (tumor cell lines): 0.67%
cumulative hematologic or non-hematologic toxicities ([5]; 36 weeks, seven subjects): No cumulative hematologic or non-hematologic toxicities
ANC nadir at optimal drug dose ([5]; IV 0.3 mg/kg/day 5 days/week for 2 weeks, 6-week cycles): > 1500 cells/µL
HbF (%) Pre [5, 8]: 3.12 ± 2.75% and 0.8% and 6.8% and 1.4% and 0.6% and 2.9% and 6.2%
Total Hemoglobin Pre [5, 8]: 7.32 ± 0.94 g/dL and 6.2 g/dL and 8.2 g/dL and 6.0 g/dL and 7.2 g/dL and 8.0 g/dL and 7.8 g/dL
HbF (%) Avg [5, 9]: 13.93 ± 2.35% and 12.40 ± 1.25% and 14.55 ± 1.32% and 12.75 ± 2.28% and 10.80 ± 2.05% and 16.42 ± 2.81% and 16.70 ± 2.55%
HbF (%) Max [5, 9]: 18.35 ± 4.46% and 14.4% and 16.3% and 17.2% and 24.6% and 23.2%
Total Hemoglobin Avg [5, 9]: 8.81 ± 0.42 g/dL and 9.05 ± 0.48 g/dL and 9.37 ± 0.60 g/dL and 8.34 ± 0.55 g/dL and 8.28 ± 0.52 g/dL and 8.91 ± 0.57 g/dL and 8.92 ± 0.79 g/dL
Total Hemoglobin Max [5, 9]: 9.73 ± 0.53 g/dL and 9.6 g/dL and 10.3 g/dL and 9.5 g/dL and 9.0 g/dL and 10.4 g/dL
average HbF during the last twenty weeks of treatment ([5]; base-line […] ± 2.75%): 13.93 ± 2.35%
average maximal HbF during the last twenty weeks of treatment ([5]; base-line […] ± 2.75%): 18.35% ± 4.46%
maximal F-cell numbers, average over all 7 subjects [5]: 69 ± 10.12%
period of neutropenia [5]: 1 to 3 days
average hemoglobin ([5]; last 20 weeks, base-line of 7.23 ±2.35 g/dL): 8.81 ± 0.42 g/dL
average ANC during the last 20 weeks of treatment ([5]; pretreatment average 4600 ± 1560, in cells/µL (unit assumed)): 4200 ± 1350
individual maximal F-cell numbers ([5]; range over subjects): 58 - 87%
DNMT1 protein expression (THP1): profoundly decreased DNMT1 protein expression
phosphorylation of H2AX (THP1): did not increase phosphorylation of H2AX
viability (THP1): did not decrease the viability
increase of AUClast compared to oral decitabine alone ([6]; THU co-administration, baboons): approximately 9 fold
hematologic or other evidence of cytotoxicity ([6]; oral decitabine 5-10 mg/m^2 + oral THU 400 mg/m^2 2-3X/week up to 8 weeks): did not produce hematologic or other evidence of cytotoxicity
Cmax ([6]; read-out: decitabine Cmax, oral decitabine 100 mg/m^2 + oral THU 400 mg/m^2, in 1 of 7 animals): ~200 nM
Cmax ([7]; human, plasma, po, decitabine plasma concentration, Cmax, oral decitabine 0.08 mg/kg (cohort 4) 60 min after oral THU 10 mg/kg): 9 to 21 nM
Cmax ([7]; human, plasma, po, decitabine plasma concentration, Cmax, oral decitabine […] (cohort 5) 60 min after oral THU 10 mg/kg, at 2 hours): ~50 nM
decitabine detected in the plasma ([7]; lowest oral decitabine dose level 0.01 mg/kg after oral THU 10 mg/kg): detected
decitabine Tmax ([7]; oral decitabine 60 minutes after THU 10 mg/kg): hours
Cmax ([7]; read-out: decitabine plasma concentration, Cmax, oral decitabine […] (cohort 5) 60 min after oral THU 10 mg/kg, at 2 hours): 39 to 54 nM
decrease of the incidence of cancers (cancers): 30%
DNMT1 protein decrease from baseline in PBMC (DNMT1; decitabine 0.08 mg/kg (cohort 4) after THU 10 mg/kg 2X/week, all patients): approximately 50%
DNMT1 protein decrease from baseline in PBMC (DNMT1; decitabine […] (cohort 5) after THU 10 mg/kg 2X/week, 2 of the 3 patients): > 75%
DNMT1 protein decrease from baseline in PBMC (DNMT1; lower decitabine doses (cohorts 1-3)): not in patients with lower decitabine doses
